# Experimental data as given in patent publication US20250339426A1, “GCN2 MODULATOR FOR TREATING CANCER” (HIBERCELL, INC., priority 2022, published 2025).
# What was measured:
# [1] = test system: 786-O (human renal cell carcinoma cancer cells); assay: In vivo tumor growth inhibition, 786-O xenograft; design: species or system BALB/c nude mice; conditions: HC-7366 single agent, 3 mg/kg twice daily (FIG. 58)
# Procedure: 786-O (human renal cell carcinoma cancer cells): Female 6-8 weeks old BALB/c nude mice were inoculated subcutaneously on the right flank with 786-O tumor cells (5×10^6) in 0.1 ml of RPMI1640 medium without serum for tumor development. […] For the DC101 combination study, DC101 (murine monoclonal anti-VEGFR2 antibody) was dosed at 15 mg/kg twice a week by intraperitoneal injection.
# [formula] • 2.2.2 Tumor Measurements: The measurement of tumor size was conducted three times weekly with a caliper and recorded. The tumor volume (mm^3) was estimated using the formula: TV=a×b^2/2, where “a” and “b” is long and short diameters of a tumor, respectively. Tumor volume was calculated using the formula [tumor volume (mm^3)=π/6×length×width^2).
# Regression was calculated using the formula=100×ΔT/T initial, if ΔT<0. Animals with 0 mm^3 tumor volume (no measurable tumor) for three consecutive measurements were considered as complete responders and animals with 50% tumor regressions were partial responders.
# Female 6-8 weeks old BALB/c nude mice were inoculated subcutaneously on the right flank with 786-O tumor cells (5×10^6) in 0.1 ml of RPMI1640 medium without serum for tumor development (see Example 6). […]
# [2] = test system: ASNS, PHGDH, PUMA, PSAT1, S100A8/A9 in MV4-11 tumors; assay: Tumor IHC, MV4-11 tumors (venetoclax combination study); type: in vivo, BALB/c nude mice; conditions: end-of-study tumors
# Procedure: Immunohistochemical analysis was carried out on tumors that were collected at the end of the study described in Example 6. Formalin-fixed paraffin-embedded samples were sectioned at 5 μm thickness and mounted on Superfrost Plus microscope slides (Fisher Scientific). All immunohistochemical (IHC) staining was performed on Bond Rx auto-stainer (Leica Biosystems) using the conventional TSA-amplified detection system. Primary antibodies used were as follows: a-ASNS (Cell Signaling Technology #92479), a-PUMA (Cell Signaling Technology #98672), a-PSAT1 (Proteintech #10501-1-AP), a-PHGDH (Proteintech #14719-1-AP), HIF-1a-Novus Biologicals NB 100-479, HIF-2a-Novus Biologicals NB100-122SS, and GLUT-1-EMB Biosciences 07-1401. TSA-conjugated Alexa488, Alexa 568 and Alexa647 fluorophores from Invitrogen (#B40953, #B40956, and #B40958) were used at 1:500 dilution. Slides were counterstained with DAPI and cover slipped using Mowiol anti-fade mounting media (Sigma #D2522).
# Slides were imaged with Aperio Versa 200 (Leica Biosystems) whole-slide scanner using 10×/0.32NA objective, and the data were analyzed using custom-written macros in ImageJ/FIJI (NIH). Briefly, 150 μm of outer edges of the tumor sections and necrotic regions (determined by lack of 4′,6-diamidino-2-phenylindole (DAPI) signal or presence of condensed DNA) were eliminated from the analysis. Gaussian-blurred DAPI channel was used to measure the area of the tumor tissue. Scans of immune-staining were processed to remove background, then total intensity value above appropriate threshold levels was measured and normalized to tissue area. All graphing and statistics (one-way ANOVA and pair-wise comparisons) were performed using Prism GraphPad.
# Slides were deparaffinized, rehydrated and heat mediated antigen retrieval was conducted with AR6 buffer (Akoya). Slides were blocked with Roche diagnostics antibody diluent (Fisher) and stained with primary antibodies for 1 hr at 110 rpm. After washing, horseradish peroxidase (HRP)-conjugated secondary antibodies were added for 10 mins at 110 rpm. After washing, OPAL detection dye (Akoya) was added for a static 10 min incubation. Antigen retrieval was performed post OPAL staining, followed by DAPI staining and slide covering. Multispectral images were captured on the Polaris imaging system (Akoya) and spectral unmixing, cell segmentation and phenotyping was performed using Inform Tissue Finder software (Akoya). Imaging data was converted into .csv files and imported into Flowjo for analysis of S100A8/A9 percent positive cells. Primary antibodies used were rabbit anti-human/mouse S100A8/A9 (Clone RM1038, Abcam ab288715, paired with Opal 570).
# Immunohistochemical analysis was performed on the tumors according to the procedures described in Example 7.
# FaDu tumors and plasma = assay: Metabolomic analysis of tumor and plasma, FaDu tumor bearing mice; type: in vivo
# Procedure: FaDu tumor bearing mice were treated with vehicle or HC-7366 (1, 3, or 30 mg/kg) twice a day orally for three days, and on the morning of Day 4 an AM dose was administered and tumors and plasma were collected 1 hr after dose. Tumor and plasma samples were extracted and split into equal parts for analysis on LC/MS/MS and Polar LC platforms. Proprietary software was used to match ions to an in-house library of standards for metabolite identification and for metabolite quantitation by peak area integration (Metabolon). Proteomic analysis on tumors was performed at MS Bioworks. The equivalent of 3 μg of peptide from each pooled fraction was analyzed by nano LC-MS/MS with a Waters M-Class HPLC system interfaced to a ThermoFisher Fusion Lumos mass spectrometer. Histograms show metabolite levels of treatment groups normalized to vehicle control (FIGS. 115-122).
# ATF4 = ATF4 activity assay (HEK293-ATF4-Luc, luciferase); type: cell-based; conditions: 12.5 nM Halofuginone, 6 hours, FIG. 3
# Procedure: HEK293-ATF4-Luc cells were with culture medium 1.5e^5 cells/mL and 25 μL of cell suspension was added into each well of 384-well cell culture plate (Corning, CLS3570-50EA) as designated and transferred into 37° C.-5% CO2 incubator (Thermo Scientific) overnight for cell attachment. HC-7366 was serially diluted to 11 concentrations by 3-fold dilution in DMSO and 25 nL of stock was plated into cell plate by Echo550 (Labcyte, Echo550), then incubated for 30 minutes at 37° C. After HC-7366 treatment, cells were treated with either DMSO or 12.5 nM Halofuginone to activate GCN2 for 6 hours. After 6 hours, 25 μL of One-Glo reagent (Promega, cat #: E6120) was added into each well to be detected (at 1:1 to culture medium). Then the plates were placed at room temperature for 10 min followed by luciferase luminescence reading on EnVision (PerkinElmer). The data were analyzed by XLfit (v5.3.1.3), equation 201.
# [3] = HC-7366 3 mg/kg, alone or with venetoclax
compound,measurement,setting,value
"CNC(=O)c1ncn2cc(-c3c(F)ccc(NS(=O)(=O)c4cc(Cl)cnc4OC)c3F)ncc12 [HC-7366, 6-(3-((5-chloro-2-methoxypyridine)-3-sulfonamido)-2,6-difluorophenyl)-N-methylimidazo[1,5-a]pyrazine-1-carboxamide]",TGI %,[1],~78%
same,PSAT1 levels,[2],did not change
same,ASNS by IHC,[2]; [3],potent activation
same,PHGDH by IHC,[2]; [3],potent activation
same,PUMA by IHC,[2]; [3],potent activation
same,S100A8/A9 levels,[2]; single agents and combination,significantly reduced
same,urea levels,FaDu tumors and plasma; plasma,significantly increased
same,oxidized glutathione levels,FaDu tumors and plasma; tumor,significantly reduced
same,reduced glutathione levels,FaDu tumors and plasma; tumor,did not alter
same,gamma glutamyl amino acid levels,FaDu tumors and plasma; tumor and plasma,significantly increased
same,levels of several amino acids,"FaDu tumors and plasma; tumor and plasma, 1, 3, or 30 mg/kg twice a day, Day 4",significantly elevated
same,"levels of arginine, arginosuccinate and citrulline",FaDu tumors and plasma; tumors,significantly increased
same,pyrimidine synthesis metabolites,FaDu tumors and plasma; tumors,significantly reduced
same,"ATF4 activity, cells treated with HC-7366 and Halofuginone",ATF4,GCN2 inhibitory effect
